According to PubChem BioAssay AID1259411 (Chemical Carcinogenesis Research Information System (CCRIS), 2018):
The source made the active and inactive calls. No rule for the calls is given here.

Tested on: rodent carcinogenicity bioassays, tumor incidence
Assay: CCRIS carcinogenicity studies
How it was run: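 NCI-built, expert-reviewed records of carcinogenicity and related test outcomes (mutagenicity, tumor promotion/inhibition) compiled from published and report sources, historical span 1985-2011, not updated.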

O=C1[C@H]2CC=CC[C@H]2C(=O)N1SC(Cl)(Cl)Cl
carcinogen call (Species: MOUSE, Strain/Sex: B6C3F1/MALE, Route: ORAL, Dose: 0, 8000, 16000 PPM IN DIET, Dose: 0, 8000, 16000 PPM IN DIET, Tumor Site: Type of Lesion: DUODENUM: ADENOMATOUS POLYP (NOS) OR ADENOCARCINOMA IN ADENOMATOUS POLYP): active; positive
carcinogen call (Species: MOUSE, Strain/Sex: SWISS/FEMALE, Route: DERMAL, Dose: 0, 450 UG IN 200 µL DMSO 3/WK FOR 52 WK (STUDY DURATION: 52 WK)): inactive; negative
carcinogen call (Species: Mouse, Strain/Sex: Swiss CD-1/Female (80/dose), Route: Oral, Dose: 0, 2000/6000, 6000/10,000, 10,000/16,000 ppm in diet for 113 wk (lower dose first 4 wk, higher dose for remainder of stu, Dose: 0, 2000/6000, 6000/10,000, 10,000/16,000 ppm in diet for 113 wk (lower dose first 4 wk, higher dose for remainder of stu): inactive; negative (purity of 90.7%; study details not given in source)
carcinogen call (Species: Mouse, Strain/Sex: Swiss CD-1/Male (80/dose), Route: Oral, Dose: 0, 2000/6000, 6000/10,000, 10,000/16,000 ppm in diet for 113 wk (lower dose first 4 wk, higher dose for remainder of stu, Dose: 0, 2000/6000, 6000/10,000, 10,000/16,000 ppm in diet for 113 wk (lower dose first 4 wk, higher dose for remainder of stu, Tumor Site: Type of Lesion: INTESTINE: Adenomas and adenocarcinomas in jejunum): active; positive (10,000 ppm group) (purity of 90.7%; study details n ot given in source
carcinogen call (Species: RAT, Strain/Sex: OSBORNE-MENDEL/FEMALE, Route: ORAL, Dose: 0, 2525, 6060 PPM IN DIET, TWA, Dose: 0, 2525, 6060 PPM IN DIET, TWA): inactive; negative
carcinogen call (Species: RAT, Strain/Sex: OSBORNE-MENDEL/MALE, Route: ORAL, Dose: 0, 2525, 6060 PPM IN DIET, TWA, Dose: 0, 2525, 6060 PPM IN DIET, TWA): inactive; negative
carcinogen call (Species: Rat, Strain/Sex: CD/Female (50/group), Route: Oral, Dose: 0, 25, 100, 250 mg/kg/day in diet for 2 yr, Dose: 0, 25, 100, 250 mg/kg/day in diet for 2 yr): inactive; negative (purity of 89%; study details not given in source)
carcinogen call (Species: Rat, Strain/Sex: CD/Male (50/group), Route: Oral, Dose: 0, 25, 100, 250 mg/kg/day in diet for 2 yr, Dose: 0, 25, 100, 250 mg/kg/day in diet for 2 yr, Tumor Site: Type of Lesion: KIDNEY: Renal tubular adenomas or carcinomas (1, 1, 3, 4)): active; positive (purity of 89%; study details not given in source)

O=C(Nc1ccccc1)Nc1ccnc(Cl)c1
carcinogen call (Species: Mouse, Strain/Sex: CD-1/Female (60/Group), Route: Oral, Dose: 0, 10, 1000 mg/kg/day of 96.9% forchlorfenuron in diet for 18 mo, study duration 18 mo, Dose: 0, 10, 1000 mg/kg/day of 96.9% forchlorfenuron in diet for 18 mo, study duration 18 mo): inactive; negative
carcinogen call (Species: Mouse, Strain/Sex: CD-1/Male (60/Group), Route: Oral, Dose: 0, 10, 1000 mg/kg/day of 96.9% forchlorfenuron in diet for 18 mo, study duration 18 mo, Dose: 0, 10, 1000 mg/kg/day of 96.9% forchlorfenuron in diet for 18 mo, study duration 18 mo): inactive; negative
carcinogen call (Species: Rat, Strain/Sex: Strain not specified by Department of Pesticides Regulation/Female (70/Group), Route: Oral, Dose: 0, 9, 122, 518 mg/kg/day of 98.5% forchlorfenuron in diet for up to 2 yr, study duration 2 yr, Dose: 0, 9, 122, 518 mg/kg/day of 98.5% forchlorfenuron in diet for up to 2 yr, study duration 2 yr): inactive; negative
carcinogen call (Species: Rat, Strain/Sex: Strain not specified by Department of Pesticides Regulation/Male (70/Group), Route: Oral, Dose: 0, 7, 93, 352 mg/kg/day of 98.5% forchlorfenuron in diet for up to 2 yr, study duration 2 yr, Dose: 0, 7, 93, 352 mg/kg/day of 98.5% forchlorfenuron in diet for up to 2 yr, study duration 2 yr): inactive; negative

O=C(O)CC(O)(CC(=O)O)C(=O)O
carcinogen call (Species: MOUSE, Strain/Sex: BC3F1/FEMALE, Route: IP INJECTION ONCE, Dose: 100, 500, 1000, 5000 BQ (STUDY DURATION: LIFESPAN), Dose: 100, 500, 1000, 5000 BQ (STUDY DURATION: LIFESPAN), Tumor Site: Type of Lesion: BONE: OSTEOSARCOMAS): active; positive
carcinogen call (Species: MOUSE, Strain/Sex: C3H/FEMALE, Route: IP INJECTION ONCE, Dose: 100, 500, 1000, 5000 BQ (STUDY DURATION: LIFESPAN), Dose: 100, 500, 1000, 5000 BQ (STUDY DURATION: LIFESPAN), Tumor Site: Type of Lesion: BONE: OSTEOSARCOMAS): active; positive
carcinogen call (Species: MOUSE, Strain/Sex: C57BL/6/FEMALE, Route: IP INJECTION ONCE, Dose: 100, 500, 1000, 5000 BQ (STUDY DURATION: LIFESPAN), Dose: 100, 500, 1000, 5000 BQ (STUDY DURATION: LIFESPAN), Tumor Site: Type of Lesion: BONE: OSTEOSARCOMAS): active; positive

c1ccc2c(c1)ccc1c3ccccc3sc21
carcinogen call (Species: RAT, Strain/Sex: OSBORNE-MENDEL/FEMALE, Route: INTRAPULMONARY IMPLANT, Dose: 0, 1, 3, 6 MG IN BEESWAX AND TRIOCTANOIN IMPLANTED IN LUNG (STUDY DURATION: 141 WK), Dose: 0, 1, 3, 6 MG IN BEESWAX AND TRIOCTANOIN IMPLANTED IN LUNG (STUDY DURATION: 141 WK), Tumor Site: Type of Lesion: LUNG: CARCINOMA): active; positive

Nc1ccc2c(c1)C(=O)c1ccccc1C2=O
carcinogen call (Species: MOUSE, Strain/Sex: B6C3F1/FEMALE, Route: ORAL, Dose: 0, 0.5, 1.0% OF DIET, Dose: 0, 0.5, 1.0% OF DIET, Tumor Site: Type of Lesion: LYMPHATIC SYSTEM: MALIGNANT LYMPHOMA, LIVER: HEPATOCELLULAR CARCINOMA): active; positive
carcinogen call (Species: MOUSE, Strain/Sex: B6C3F1/MALE, Route: ORAL, Dose: 0, 0.5, 1.0% OF DIET, Dose: 0, 0.5, 1.0% OF DIET, Tumor Site: Type of Lesion: LIVER: HEPATOCELLULAR CARCINOMA, ADENOMA): active; positive
carcinogen call (Species: RAT, Strain/Sex: F344/MALE, Route: ORAL, Dose: 0, 0.35, 0.69% OF DIET, Dose: 0, 0.35, 0.69% OF DIET, Tumor Site: Type of Lesion: LIVER: HEPATOCELLULAR CARCINOMA, NEOPLASTIC NODULE): active; positive

CCn1c2ccccc2c2cc(N)ccc21
carcinogen call (Species: MOUSE, Strain/Sex: B6C3F1/FEMALE, Route: ORAL, Dose: 0, 800, 1200 PPM IN DIET FOR 78 WK (STUDY DURATION: 95-97 WK), Dose: 0, 800, 1200 PPM IN DIET FOR 78 WK (STUDY DURATION: 95-97 WK), Tumor Site: Type of Lesion: LIVER: HEPATOCELLULAR CARCINOMA): active; positive
carcinogen call (Species: MOUSE, Strain/Sex: B6C3F1/MALE, Route: ORAL, Dose: 0, 800, 1200 PPM IN DIET FOR 78 WK (STUDY DURATION: 94-96 WK), Dose: 0, 800, 1200 PPM IN DIET FOR 78 WK (STUDY DURATION: 94-96 WK), Tumor Site: Type of Lesion: LIVER: HEPATOCELLULAR CARCINOMA, HEPATOCELLULAR ADENOMA OR CARCINOMA): active; positive
carcinogen call (Species: RAT, Strain/Sex: F344/FEMALE, Route: ORAL, Dose: 0, 800, 2000 PPM IN DIET FOR 78 WK (STUDY DURATION: 105-110 WK), Dose: 0, 800, 2000 PPM IN DIET FOR 78 WK (STUDY DURATION: 105-110 WK), Tumor Site: Type of Lesion: LIVER: NEOPLASTIC NODULE OR HEPATOCELLULAR CARCINOMA, UTERUS OR ENDOMETRIUM: ADENOCARCINOMA (NOS), EAR (ZYMBAL GLAND): S, Tumor Site: Type of Lesion: LIVER: NEOPLASTIC NODULE OR HEPATOCELLULAR CARCINOMA, UTERUS OR ENDOMETRIUM: ADENOCARCINOMA (NOS), EAR (ZYMBAL GLAND): S): active; positive
carcinogen call (Species: RAT, Strain/Sex: F344/MALE, Route: ORAL, Dose: 0, 800, 2000 PPM IN DIET FOR 78 WK (STUDY DURATION: 104-109 WK), Dose: 0, 800, 2000 PPM IN DIET FOR 78 WK (STUDY DURATION: 104-109 WK), Tumor Site: Type of Lesion: INTEGUMENTARY SYSTEM: BASAL CELL OR SQUAMOUS CELL CARCINOMA OR SQUAMOUS CELL PAPILLOMA, LIVER: HEPATOCELLULAR CARCINOMA): active; positive

Clc1ccc(C(c2ccccc2Cl)C(Cl)(Cl)Cl)cc1 (stereo unspecified) (tested in a mixture with another compound)
carcinogen call (Species: MOUSE, Strain/Sex: BALB/MALE,FEMALE, Route: DIET, Dose: 0, 2, 20, 250 PPM, Dose: 0, 2, 20, 250 PPM, Tumor Site: Type of Lesion: LIVER: HEPATOCELLULAR TUMOR): active; positive
carcinogen call (Species: MOUSE, Strain/Sex: CF-1/MALE,FEMALE, Route: DIET, Dose: 0, 250 PPM FOR 30 WK, Tumor Site: Type of Lesion: LIVER: HEPATOMA): active; positive
carcinogen call (Species: MOUSE, Strain/Sex: CF-1, Route: DIET, Dose: 0, 2, 10, 50, 250 PPM, Dose: 0, 2, 10, 50, 250 PPM, Tumor Site: Type of Lesion: LIVER: HEPATOCELLULAR TUMOR): active; positive
